PubChem BioAssay (NCI)
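Dose response: 5 concentrations. Exposure: 48 h. Format: 96-well plates. Endpoint: linear interpolation; highest concentration if not reached. Here, GI50 denotes the concentration required for 50% inhibition of growth. TGI marks complete inhibition of growth.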

What was measured:
Assay in all cases: NCI-60 cell line screen, 48 h
A498 renal = system: A498 renal
SK-MEL-2 melanoma = system: SK-MEL-2 melanoma
SF-268 CNS = system: SF-268 CNS
NCI/ADR-RES ovarian = system: NCI/ADR-RES ovarian
MDA-N = system: MDA-N
SF-295 CNS = system: SF-295 CNS
HOP-92 NSCLC = system: HOP-92 NSCLC
HCC-2998 colon = system: HCC-2998 colon
HCT-15 colon = system: HCT-15 colon
RPMI-8226 leukemia = system: RPMI-8226 leukemia

`C=C1C(=O)OC2C1C(OC(=O)/C(C)=C/C)CC1(C)C(=O)CCC(=C)C21` (stereo unspecified) showed a TGI (A498 renal) of 34 µM, a TGI (SK-MEL-2 melanoma) of 24.2 µM and a TGI (SF-268 CNS) of 33.4 µM. It also gave a TGI (NCI/ADR-RES ovarian) of 33.8 µM, a TGI (MDA-N) of 18.1 µM and a TGI (SF-295 CNS) of 35.8 µM. The TGI (HOP-92 NSCLC) was 19.9 µM, the TGI (HCC-2998 colon) was 26.6 µM and the TGI (HCT-15 colon) was 10.3 µM. For the same compound, the TGI (RPMI-8226 leukemia) was 7.97 µM.

In the case of `CC1(C)COC(/C=C/C2=NC(C)(C)CO2)=N1`, the TGI (A498 renal) is reported as 25.4 µM, the TGI (SK-MEL-2 melanoma) is reported as 82.9 µM and the TGI (SF-268 CNS) is reported as 75.8 µM. The TGI (NCI/ADR-RES ovarian) was 84 µM, the TGI (MDA-N) was 48.7 µM and the TGI (SF-295 CNS) was over 100 µM. It also gave a TGI (HOP-92 NSCLC) of 84.1 µM, a TGI (HCT-15 colon) of 34.5 µM and a TGI (RPMI-8226 leukemia) of 26.2 µM.

Compound `COc1cccc(-c2nc3c(C(=O)NCCN(C)C)cccc3[nH]2)c1` has a TGI (A498 renal) of 32.1 µM, a TGI (SK-MEL-2 melanoma) of 34.4 µM and a TGI (SF-268 CNS) of over 41.7 µM. For the same compound, the TGI (NCI/ADR-RES ovarian) was 44.1 µM, the TGI (SF-295 CNS) was 47.6 µM and the TGI (HOP-92 NSCLC) was 46.7 µM. It also gave a TGI (HCC-2998 colon) of 30.8 µM, a TGI (HCT-15 colon) of 41.6 µM and a TGI (RPMI-8226 leukemia) of 46.3 µM.

`Nc1nc(SCc2ccccc2)c2ncn(Cc3ccccc3)c2n1` was tested, and the TGI (A498 renal) was over 65.9 µM, the TGI (SK-MEL-2 melanoma) was over 100 µM and the TGI (SF-268 CNS) was over 100 µM. For the same compound, the TGI (NCI/ADR-RES ovarian) was over 100 µM, the TGI (MDA-N) was over 100 µM and the TGI (SF-295 CNS) was over 100 µM. The TGI (HOP-92 NSCLC) was over 100 µM, the TGI (HCC-2998 colon) was over 100 µM and the TGI (HCT-15 colon) was over 100 µM. For the same compound, the TGI (RPMI-8226 leukemia) was over 100 µM.

In the case of `Fc1ccc(-c2ccc(-c3nnc(-c4cc(F)c(Cl)cc4Cl)o3)o2)cc1Cl`, the GI50 (SK-MEL-2 melanoma) is reported as 54.8 µM, the TGI (SK-MEL-2 melanoma) is reported as over 100 µM and the GI50 (SF-268 CNS) is reported as 33 µM. The TGI (SF-268 CNS) was over 100 µM, the GI50 (NCI/ADR-RES ovarian) was 35800 nM and the TGI (NCI/ADR-RES ovarian) was over 100 µM. For the same compound, the GI50 (SF-295 CNS) was 30.2 µM, the TGI (SF-295 CNS) was over 100 µM and the GI50 (HOP-92 NSCLC) was 38.5 µM. The TGI (HOP-92 NSCLC) was over 100 µM, the GI50 (HCC-2998 colon) was 41.3 µM and the TGI (HCC-2998 colon) was over 100 µM. For the same compound, the GI50 (HCT-15 colon) was 27.6 µM, the TGI (HCT-15 colon) was over 100 µM and the GI50 (RPMI-8226 leukemia) was 26.4 µM. For the same compound, the TGI (RPMI-8226 leukemia) was 72.9 µM.

Compound `S=C(Nc1ccc(Cl)cc1)Nc1ccc(Cl)cc1` (tested in a mixture with another compound) has a GI50 (A498 renal) of 1620 nM, a TGI (A498 renal) of 6.56 µM and a GI50 (SK-MEL-2 melanoma) of 2.34 µM. The TGI (SK-MEL-2 melanoma) was 5.04 µM, the GI50 (SF-268 CNS) was 3.2 µM and the TGI (SF-268 CNS) was 15.8 µM. The GI50 (NCI/ADR-RES ovarian) was 2540 nM, the TGI (NCI/ADR-RES ovarian) was 13.9 µM and the GI50 (SF-295 CNS) was 1.75 µM. The TGI (SF-295 CNS) was 4.38 µM, the GI50 (HOP-92 NSCLC) was 1.55 µM and the TGI (HOP-92 NSCLC) was 4.56 µM. For the same compound, the GI50 (HCC-2998 colon) was 2.07 µM, the TGI (HCC-2998 colon) was 5.5 µM and the GI50 (HCT-15 colon) was 2.59 µM. It also gave a TGI (HCT-15 colon) of 11.4 µM.

`O=C1c2ccccc2-c2ccc(N=[N+]([O-])c3ccc4c(c3)C(=O)c3ccccc3-4)cc21` was tested, and the TGI (A498 renal) was over 100 µM, the TGI (SK-MEL-2 melanoma) was over 100 µM and the TGI (SF-268 CNS) was over 100 µM. It also gave a TGI (NCI/ADR-RES ovarian) of over 100 µM, a TGI (MDA-N) of over 100 µM and a TGI (SF-295 CNS) of over 100 µM. It also gave a TGI (HOP-92 NSCLC) of over 100 µM, a TGI (HCC-2998 colon) of over 100 µM and a TGI (HCT-15 colon) of over 100 µM. For the same compound, the TGI (RPMI-8226 leukemia) was over 100 µM.

In the case of `O=C1/C(=C\c2ccc(-c3ccc(Cl)cc3Cl)o2)SC2N=C(COc3ccc(Cl)cc3)NN12` (stereo unspecified), the TGI (A498 renal) is reported as 5.98 µM, the TGI (SK-MEL-2 melanoma) is reported as over 100 µM and the TGI (SF-268 CNS) is reported as over 100 µM. For the same compound, the TGI (NCI/ADR-RES ovarian) was over 100 µM, the TGI (MDA-N) was over 100 µM and the TGI (SF-295 CNS) was over 100 µM. The TGI (HOP-92 NSCLC) was over 100 µM, the TGI (HCC-2998 colon) was over 100 µM and the TGI (HCT-15 colon) was over 100 µM. It also gave a TGI (RPMI-8226 leukemia) of over 100 µM.

`O=S(O)c1cc(Cl)cc(Cl)c1O` showed a TGI (A498 renal) of over 100 µM, a TGI (SK-MEL-2 melanoma) of over 100 µM and a TGI (SF-268 CNS) of over 100 µM. It also gave a TGI (HCC-2998 colon) of over 100 µM.

`O=S(=O)(c1ccc(I)cc1)N(c1ccccc1)S(=O)(=O)C(F)(F)C(F)(F)C(F)(F)C(F)(F)F` showed a TGI (SK-MEL-2 melanoma) of 90.6 µM, a TGI (NCI/ADR-RES ovarian) of over 100 µM and a TGI (MDA-N) of over 100 µM. It also gave a TGI (SF-295 CNS) of 71.8 µM, a TGI (HOP-92 NSCLC) of 42 µM and a TGI (HCT-15 colon) of over 100 µM. For the same compound, the TGI (RPMI-8226 leukemia) was over 100 µM.

`COc1ccc(SC(C)(SC)c2ccccn2)c(OC)n1` (stereo unspecified) was tested, and the TGI (A498 renal) was over 100 µM, the TGI (SK-MEL-2 melanoma) was over 100 µM and the TGI (SF-268 CNS) was over 100 µM. The TGI (NCI/ADR-RES ovarian) was over 100 µM, the TGI (MDA-N) was over 100 µM and the TGI (SF-295 CNS) was over 100 µM. The TGI (HOP-92 NSCLC) was over 100 µM, the TGI (HCC-2998 colon) was over 100 µM and the TGI (HCT-15 colon) was over 100 µM. For the same compound, the TGI (RPMI-8226 leukemia) was 73.4 µM.

For `Oc1cc2cccc[n+]2c2cccc(Cl)c12`, the GI50 (MDA-N) was 16.9 µM, the TGI (MDA-N) was 33.5 µM and the GI50 (SF-295 CNS) was 95.3 µM. It also gave a GI50 (HOP-92 NSCLC) of 15.8 µM, a TGI (HOP-92 NSCLC) of 71.5 µM and a GI50 (HCC-2998 colon) of 52.4 µM. It also gave a GI50 (HCT-15 colon) of 49.4 µM and a GI50 (RPMI-8226 leukemia) of 40.4 µM.

`O=C(O)C1CC(c2ccccc2)=NN1c1ccccc1` (stereo unspecified) was tested, and the TGI (A498 renal) was over 100 µM, the TGI (SK-MEL-2 melanoma) was over 100 µM and the TGI (SF-268 CNS) was over 100 µM. The TGI (NCI/ADR-RES ovarian) was over 100 µM, the TGI (MDA-N) was over 100 µM and the TGI (SF-295 CNS) was over 100 µM. For the same compound, the TGI (HOP-92 NSCLC) was over 100 µM, the TGI (HCC-2998 colon) was 57.4 µM and the TGI (HCT-15 colon) was over 100 µM. For the same compound, the TGI (RPMI-8226 leukemia) was over 100 µM.

In the case of `N#C/C=C1\C=CC(O)C(O)C1OC1OC(CO)C(O)C(O)C1O` (stereo unspecified), the TGI (A498 renal) is reported as over 100 µM, the TGI (SK-MEL-2 melanoma) is reported as over 100 µM and the TGI (SF-268 CNS) is reported as over 100 µM. It also gave a TGI (NCI/ADR-RES ovarian) of over 100 µM, a TGI (MDA-N) of over 100 µM and a TGI (SF-295 CNS) of over 100 µM. For the same compound, the TGI (HOP-92 NSCLC) was over 100 µM, the TGI (HCC-2998 colon) was over 100 µM and the TGI (HCT-15 colon) was over 100 µM. It also gave a TGI (RPMI-8226 leukemia) of over 100 µM.

With `S=C1N(c2ccc(Cl)cc2)C2=C(N=Nc3ccccc3)C(=Nc3ccccc3S2)N1c1ccccn1` the TGI (A498 renal) was 17.2 µM, the TGI (SF-268 CNS) was 19.6 µM and the TGI (NCI/ADR-RES ovarian) was 33.4 µM. It also gave a TGI (MDA-N) of 30.1 µM, a TGI (SF-295 CNS) of 32.3 µM and a TGI (HOP-92 NSCLC) of 49.6 µM. For the same compound, the TGI (HCC-2998 colon) was 35.7 µM, the TGI (HCT-15 colon) was 23 µM and the TGI (RPMI-8226 leukemia) was 43.6 µM.

`CN(C)Cc1ccc(C(=O)Nc2ccc3ncnc(Nc4ccc(Oc5cccc(F)c5)c(Cl)c4)c3c2)cc1` showed a GI50 (A498 renal) of 1350 nM, a TGI (A498 renal) of 2.71 µM and a GI50 (SF-268 CNS) of 1.53 µM. For the same compound, the TGI (SF-268 CNS) was 3.28 µM, the GI50 (NCI/ADR-RES ovarian) was 1670 nM and the TGI (NCI/ADR-RES ovarian) was 3.45 µM. It also gave a GI50 (SF-295 CNS) of 1.71 µM, a TGI (SF-295 CNS) of 3.11 µM and a GI50 (HOP-92 NSCLC) of 1.09 µM. It also gave a TGI (HOP-92 NSCLC) of 2.44 µM, a GI50 (HCC-2998 colon) of 1.67 µM and a TGI (HCC-2998 colon) of 3.11 µM. It also gave a GI50 (HCT-15 colon) of 1.25 µM and a TGI (HCT-15 colon) of 2.62 µM.

For `CC(C)C(N=Cc1ccccc1O)C(=O)O` (stereo unspecified), the TGI (A498 renal) was over 100 µM, the TGI (SK-MEL-2 melanoma) was over 100 µM and the TGI (SF-268 CNS) was over 100 µM. The TGI (NCI/ADR-RES ovarian) was over 100 µM, the TGI (MDA-N) was over 100 µM and the TGI (SF-295 CNS) was over 100 µM. For the same compound, the TGI (HOP-92 NSCLC) was over 100 µM, the TGI (HCT-15 colon) was over 100 µM and the TGI (RPMI-8226 leukemia) was over 100 µM.
